According to publication PMC9418190, “UDP-glucose, cereblon-dependent proinsulin degrader” (Scientific Reports, 2022):

Target: T1, cereblon (Mus musculus, UniProt Q8C7D2)
T1 construct: gene Crbn
T1 sequence (Q8C7D2 1-445): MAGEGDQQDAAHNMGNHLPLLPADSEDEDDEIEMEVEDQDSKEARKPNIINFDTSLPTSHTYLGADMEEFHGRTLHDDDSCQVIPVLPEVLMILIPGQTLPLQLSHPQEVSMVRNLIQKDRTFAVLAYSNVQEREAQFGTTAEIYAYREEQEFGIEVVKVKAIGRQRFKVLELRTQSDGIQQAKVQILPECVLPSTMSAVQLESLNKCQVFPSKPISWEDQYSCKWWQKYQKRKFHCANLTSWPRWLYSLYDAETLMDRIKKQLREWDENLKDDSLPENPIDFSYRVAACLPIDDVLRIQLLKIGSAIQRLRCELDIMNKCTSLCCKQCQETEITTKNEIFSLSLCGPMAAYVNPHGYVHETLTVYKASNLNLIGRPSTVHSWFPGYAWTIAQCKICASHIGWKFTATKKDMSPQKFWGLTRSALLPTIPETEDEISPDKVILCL
Test: dose-dependent protection of proinsulin from cereblon-dependent degradation in NIT1 cells
Type: cell-based

With `O=C1CCC(=O)N1` [succinimide] as the compound, how does the “dose-dependent protection of proinsulin from cereblon-dependent degradation in N” value read?
The value was “In fact, succinimide binds to cereblon, protects proinsulin degradation from proinsulin degrader X in a dose-dependent manner”.
